According to ChEMBL document CHEMBL4364276, “Discovery of 4-phenyl-2H-benzo[b][1,4]oxazin-3(4H)-one derivatives as potent and orally active PI3K/mTOR dual inhibitors” (Eur J Med Chem, 2019):

Tests used:
[1] = molecular target: Wee1-like protein kinase (Homo sapiens) (UniProt P30291); test: Inhibition of human WEE1 at 100 nM using MBP as substrate by [gamma-33P]-ATP assay
[2] = molecular target: cAMP-dependent protein kinase catalytic subunit alpha (Homo sapiens) (UniProt P17612); test: Inhibition of human PKA at 100 nM using LCGRTGRRNSI as substrate by [gamma-33P]-ATP assay
[3] = molecular target: Myotonin-protein kinase (Homo sapiens) (UniProt Q09013); test: Inhibition of human DMPK at 100 nM using KKRNRRLSVA as substrate by [gamma-33P]-ATP assay
[4] = molecular target: CDK2/Cyclin O (Homo sapiens) (UniProt P24941+P22674); test: Inhibition of human CDK2/cyclin-O at 100 nM using histone H1 as substrate by [gamma-33P]-ATP assay; assay type: protein-complex assay
[5] = molecular target: Beta-adrenergic receptor kinase 1 (Homo sapiens) (UniProt P25098); test: Inhibition of human GRK2 at 100 nM using casein as substrate by [gamma-33P]-ATP assay
[6] = molecular target: Ephrin type-A receptor 2 (Homo sapiens) (UniProt P29317); test: Inhibition of human EPHA2 at 100 nM using poly[Glu:Tyr] (4:1) as substrate by [gamma-33P]-ATP assay
[7] = molecular target: Serine/threonine-protein kinase Sgk2 (Homo sapiens) (UniProt Q9HBY8); test: Inhibition of human SGK2 at 100 nM using KGSGSGRPRTSSFAEG as substrate by [gamma-33P]-ATP assay
[8] = molecular target: Ribosomal protein S6 kinase alpha-5 (Homo sapiens) (UniProt O75582); test: Inhibition of human MSK1 at 100 nM using GRPRTSSFAEG as substrate by [gamma-33P]-ATP assay
[9] = molecular target: Serine/threonine-protein kinase mTOR (Homo sapiens, UniProt P42345); test: Inhibition of human mTOR at 100 nM using 4EBP1 as substrate by [gamma-33P]-ATP assay
[10] = molecular target: Protein-tyrosine kinase 2-beta (Homo sapiens) (UniProt Q14289); test: Inhibition of human PYK2 at 100 nM using poly[Glu:Tyr] (4:1) as substrate by [gamma-33P]-ATP assay
[11] = molecular target: eIF-2-alpha kinase GCN2 (Homo sapiens) (UniProt Q9P2K8); test: Inhibition of human EIF2AK4 at 100 nM using MBP as substrate by [gamma-33P]-ATP assay
[12] = molecular target: Serine/threonine-protein kinase Nek3 (Homo sapiens) (UniProt P51956); test: Inhibition of human NEK3 at 100 nM using MBP as substrate by [gamma-33P]-ATP assay
[13] = molecular target: BDNF/NT-3 growth factors receptor (Homo sapiens) (UniProt Q16620); test: Inhibition of human TRKB at 100 nM using poly[Glu:Tyr] (4:1) as substrate by [gamma-33P]-ATP assay
[14] = molecular target: Mitogen-activated protein kinase kinase kinase kinase 2 (Homo sapiens) (UniProt Q12851); test: Inhibition of human GCK at 100 nM using MBP as substrate by [gamma-33P]-ATP assay
[15] = molecular target: Ephrin type-B receptor 1 (Homo sapiens) (UniProt P54762); test: Inhibition of human EPHB1 at 100 nM using poly[Glu:Tyr] (4:1) as substrate by [gamma-33P]-ATP assay
[16] = molecular target: Cyclin-dependent kinase 2/cyclin E1 (Homo sapiens) (UniProt P24864+P24941); test: Inhibition of human CDK2/cyclin-E at 100 nM using histone H1 as substrate by [gamma-33P]-ATP assay; assay type: protein-complex assay
[17] = molecular target: MAP/microtubule affinity-regulating kinase 3 (Homo sapiens) (UniProt P27448); test: Inhibition of human MARK3 at 100 nM using KKKVSRSGLYRSPSMPENLNRPR as substrate by [gamma-33P]-ATP assay
[18] = molecular target: Tau-tubulin kinase 2 (Homo sapiens) (UniProt Q6IQ55); test: Inhibition of human TTBK2 at 100 nM using MBP as substrate by [gamma-33P]-ATP assay
[19] = molecular target: Ribosomal protein S6 kinase beta-2 (Homo sapiens) (UniProt Q9UBS0); test: Inhibition of human p70S6Kb at 100 nM using KKRNRTLTK as substrate by [gamma-33P]-ATP assay
[20] = molecular target: Casein kinase I isoform delta (Homo sapiens) (UniProt P48730); test: Inhibition of human CK1D at 100 nM using KRRRAL[pS]VASLPGL as substrate by [gamma-33P]-ATP assay
[21] = molecular target: Protein kinase C beta type (Homo sapiens) (UniProt P05771); test: Inhibition of human PKCb1 at 100 nM using Histone H1 as substrate by [gamma-33P]-ATP assay
[22] = molecular target: Serine/threonine-protein kinase Nek4 (Homo sapiens) (UniProt P51957); test: Inhibition of human NEK4 at 100 nM using MBP as substrate by [gamma-33P]-ATP assay
[23] = molecular target: Testis-specific serine/threonine-protein kinase 3 (Homo sapiens) (UniProt Q96PN8); test: Inhibition of human TSSK3 at 100 nM using KKKVSRSGLYRSPSMPENLNRPR as substrate by [gamma-33P]-ATP assay
[24] = molecular target: CDK2/Cyclin-E2 (Homo sapiens) (UniProt P24941+O96020); test: Inhibition of human CDK2/cyclin-E2 at 100 nM using histone H1 as substrate by [gamma-33P]-ATP assay; assay type: protein-complex assay
[25] = molecular target: Serine/threonine-protein kinase SBK1 (Homo sapiens) (UniProt Q52WX2); test: Inhibition of human SBK1 at 100 nM using LCGRTGRRNSI as substrate by [gamma-33P]-ATP assay
[26] = molecular target: Fibroblast growth factor receptor 1 (Homo sapiens) (UniProt P11362); test: Inhibition of human FGFR1 at 100 nM using KKKSPGEYVNIEFG as substrate by [gamma-33P]-ATP assay
[27] = system: HepG2; test: cells; conditions: Homo sapiens, HepG2, 72 h
[28] = molecular target: G protein-coupled receptor kinase 5 (Homo sapiens) (UniProt P34947); test: Inhibition of human GRK5 at 100 nM using casein as substrate by [gamma-33P]-ATP assay
[29] = molecular target: Casein kinase I isoform gamma-2 (Homo sapiens) (UniProt P78368); test: Inhibition of human CK1gamma2 at 100 nM using KRRRAL[pS]VASLPGL as substrate by [gamma-33P]-ATP assay
[30] = molecular target: Receptor-interacting serine/threonine-protein kinase 2 (Homo sapiens) (UniProt O43353); test: Inhibition of human RIPK2 at 100 nM using MBP as substrate by [gamma-33P]-ATP assay
[31] = molecular target: Serine/threonine-protein kinase pim-1 (Homo sapiens) (UniProt P11309); test: Inhibition of human PIM1 at 100 nM using KKRNRTLTK as substrate by [gamma-33P]-ATP assay

Chain of Ribosomal protein S6 kinase beta-2 (Homo sapiens) (Q9UBS0 whole entry, canonical isoform): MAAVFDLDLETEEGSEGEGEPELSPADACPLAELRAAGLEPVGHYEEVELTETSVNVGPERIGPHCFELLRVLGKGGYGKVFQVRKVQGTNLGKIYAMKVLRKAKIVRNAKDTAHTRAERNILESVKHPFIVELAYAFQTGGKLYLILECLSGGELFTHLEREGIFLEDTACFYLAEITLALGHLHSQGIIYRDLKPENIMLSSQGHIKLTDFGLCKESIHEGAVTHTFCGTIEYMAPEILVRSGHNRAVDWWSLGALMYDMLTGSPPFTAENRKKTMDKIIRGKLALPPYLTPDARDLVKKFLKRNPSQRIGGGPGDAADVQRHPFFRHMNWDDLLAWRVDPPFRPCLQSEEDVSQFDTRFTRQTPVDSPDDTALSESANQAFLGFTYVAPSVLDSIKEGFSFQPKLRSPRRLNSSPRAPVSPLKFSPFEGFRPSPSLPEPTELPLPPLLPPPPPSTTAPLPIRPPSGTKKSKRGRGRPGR
Chain of Mitogen-activated protein kinase kinase kinase kinase 2 (Homo sapiens) (Q12851 whole entry): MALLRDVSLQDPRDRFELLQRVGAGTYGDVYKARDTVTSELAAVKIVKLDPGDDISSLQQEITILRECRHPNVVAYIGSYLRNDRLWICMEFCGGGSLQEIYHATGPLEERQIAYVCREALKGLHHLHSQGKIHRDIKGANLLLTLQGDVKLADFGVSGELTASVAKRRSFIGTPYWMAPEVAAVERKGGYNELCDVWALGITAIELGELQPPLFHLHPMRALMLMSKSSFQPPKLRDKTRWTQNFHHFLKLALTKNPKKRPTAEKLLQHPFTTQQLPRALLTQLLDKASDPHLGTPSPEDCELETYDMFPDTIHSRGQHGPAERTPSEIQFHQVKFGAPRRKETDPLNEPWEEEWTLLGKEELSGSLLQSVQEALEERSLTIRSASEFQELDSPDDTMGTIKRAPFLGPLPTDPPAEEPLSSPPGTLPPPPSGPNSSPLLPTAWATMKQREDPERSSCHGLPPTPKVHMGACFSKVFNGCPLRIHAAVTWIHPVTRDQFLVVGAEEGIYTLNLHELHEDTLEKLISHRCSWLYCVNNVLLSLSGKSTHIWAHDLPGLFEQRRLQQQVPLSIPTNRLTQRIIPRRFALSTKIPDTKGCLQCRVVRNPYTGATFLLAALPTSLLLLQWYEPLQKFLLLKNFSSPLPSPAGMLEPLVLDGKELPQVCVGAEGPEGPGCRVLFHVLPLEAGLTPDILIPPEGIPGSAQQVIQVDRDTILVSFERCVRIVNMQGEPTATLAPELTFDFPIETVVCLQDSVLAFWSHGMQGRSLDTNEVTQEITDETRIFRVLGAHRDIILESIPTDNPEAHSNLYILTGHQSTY
Chain of Tau-tubulin kinase 2 (Homo sapiens) (Q6IQ55 whole entry): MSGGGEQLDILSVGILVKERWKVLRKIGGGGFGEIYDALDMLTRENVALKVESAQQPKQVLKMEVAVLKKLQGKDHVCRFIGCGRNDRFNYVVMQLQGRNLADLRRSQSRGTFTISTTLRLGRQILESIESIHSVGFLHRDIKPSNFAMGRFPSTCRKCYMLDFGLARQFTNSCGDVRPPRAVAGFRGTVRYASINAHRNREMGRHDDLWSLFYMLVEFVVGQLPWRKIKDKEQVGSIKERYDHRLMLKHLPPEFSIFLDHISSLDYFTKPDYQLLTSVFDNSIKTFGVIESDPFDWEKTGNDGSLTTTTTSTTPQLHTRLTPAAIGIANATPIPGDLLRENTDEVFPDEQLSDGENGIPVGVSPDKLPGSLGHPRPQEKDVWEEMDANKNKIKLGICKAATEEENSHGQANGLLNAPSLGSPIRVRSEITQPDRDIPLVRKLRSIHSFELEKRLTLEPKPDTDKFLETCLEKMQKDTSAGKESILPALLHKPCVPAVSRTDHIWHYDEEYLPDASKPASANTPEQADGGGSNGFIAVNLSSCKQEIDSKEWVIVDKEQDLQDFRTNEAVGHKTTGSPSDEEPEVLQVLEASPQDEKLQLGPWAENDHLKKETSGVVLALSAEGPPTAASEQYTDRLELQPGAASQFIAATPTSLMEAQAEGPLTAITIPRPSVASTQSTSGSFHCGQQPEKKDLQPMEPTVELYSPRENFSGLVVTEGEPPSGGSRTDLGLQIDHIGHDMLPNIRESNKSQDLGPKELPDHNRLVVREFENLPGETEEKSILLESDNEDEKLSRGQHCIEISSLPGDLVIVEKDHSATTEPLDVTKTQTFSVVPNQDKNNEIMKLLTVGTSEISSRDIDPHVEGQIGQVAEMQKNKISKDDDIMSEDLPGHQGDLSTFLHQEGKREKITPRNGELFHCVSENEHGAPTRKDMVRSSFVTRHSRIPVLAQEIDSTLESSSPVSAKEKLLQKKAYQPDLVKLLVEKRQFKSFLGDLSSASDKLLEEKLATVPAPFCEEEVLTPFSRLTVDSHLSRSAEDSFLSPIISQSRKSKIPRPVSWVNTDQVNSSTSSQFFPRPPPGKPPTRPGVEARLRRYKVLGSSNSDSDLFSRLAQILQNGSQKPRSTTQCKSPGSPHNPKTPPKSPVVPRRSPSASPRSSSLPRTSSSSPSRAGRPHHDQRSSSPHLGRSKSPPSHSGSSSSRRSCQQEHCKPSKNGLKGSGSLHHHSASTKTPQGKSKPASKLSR
Chain of Serine/threonine-protein kinase Nek3 (Homo sapiens) (P51956 whole entry): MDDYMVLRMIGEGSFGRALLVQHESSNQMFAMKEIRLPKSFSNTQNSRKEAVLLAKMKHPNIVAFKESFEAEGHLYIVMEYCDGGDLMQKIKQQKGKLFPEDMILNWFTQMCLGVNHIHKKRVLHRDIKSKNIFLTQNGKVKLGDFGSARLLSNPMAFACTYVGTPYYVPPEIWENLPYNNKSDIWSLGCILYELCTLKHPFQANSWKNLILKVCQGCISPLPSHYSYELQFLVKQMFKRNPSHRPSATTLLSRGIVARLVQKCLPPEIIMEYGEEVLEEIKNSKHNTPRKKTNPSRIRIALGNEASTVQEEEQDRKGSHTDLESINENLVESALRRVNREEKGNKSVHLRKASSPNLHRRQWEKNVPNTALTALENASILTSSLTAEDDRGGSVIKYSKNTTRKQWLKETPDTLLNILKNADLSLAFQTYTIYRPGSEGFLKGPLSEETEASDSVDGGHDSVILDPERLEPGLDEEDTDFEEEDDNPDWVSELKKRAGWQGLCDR
Chain of Serine/threonine-protein kinase Sgk2 (Homo sapiens) (Q9HBY8 whole entry): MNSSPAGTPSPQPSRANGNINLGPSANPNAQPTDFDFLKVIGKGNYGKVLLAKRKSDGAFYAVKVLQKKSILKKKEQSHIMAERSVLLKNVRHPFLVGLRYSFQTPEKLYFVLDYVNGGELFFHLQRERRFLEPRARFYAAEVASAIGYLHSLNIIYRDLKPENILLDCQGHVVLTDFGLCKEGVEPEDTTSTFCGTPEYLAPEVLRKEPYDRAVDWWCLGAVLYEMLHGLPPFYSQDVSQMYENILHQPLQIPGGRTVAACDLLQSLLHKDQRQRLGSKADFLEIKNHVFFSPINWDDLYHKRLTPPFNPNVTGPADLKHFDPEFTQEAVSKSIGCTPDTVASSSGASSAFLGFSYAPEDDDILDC
Chain of MAP/microtubule affinity-regulating kinase 3 (Homo sapiens) (P27448 whole entry, looked up): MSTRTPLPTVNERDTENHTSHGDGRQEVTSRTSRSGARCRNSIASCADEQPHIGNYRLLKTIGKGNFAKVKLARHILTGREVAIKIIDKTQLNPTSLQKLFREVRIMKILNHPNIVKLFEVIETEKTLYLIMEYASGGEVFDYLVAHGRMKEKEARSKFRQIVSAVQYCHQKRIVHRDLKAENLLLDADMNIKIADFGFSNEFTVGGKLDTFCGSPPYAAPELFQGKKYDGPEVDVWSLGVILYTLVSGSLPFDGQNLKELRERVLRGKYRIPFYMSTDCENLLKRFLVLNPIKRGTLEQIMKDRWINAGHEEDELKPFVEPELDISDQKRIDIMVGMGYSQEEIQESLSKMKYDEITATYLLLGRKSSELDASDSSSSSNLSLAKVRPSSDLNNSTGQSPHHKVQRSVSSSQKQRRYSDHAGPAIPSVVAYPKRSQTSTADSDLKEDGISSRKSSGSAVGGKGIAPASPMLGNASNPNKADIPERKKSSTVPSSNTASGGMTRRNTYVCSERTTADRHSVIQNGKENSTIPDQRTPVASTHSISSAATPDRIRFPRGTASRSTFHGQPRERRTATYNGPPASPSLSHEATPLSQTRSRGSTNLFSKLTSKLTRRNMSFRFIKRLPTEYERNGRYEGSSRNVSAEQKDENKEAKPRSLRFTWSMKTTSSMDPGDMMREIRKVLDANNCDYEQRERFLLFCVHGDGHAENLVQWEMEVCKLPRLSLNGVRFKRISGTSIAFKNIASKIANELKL
Chain of Ribosomal protein S6 kinase alpha-5 (Homo sapiens) (O75582 whole entry, looked up): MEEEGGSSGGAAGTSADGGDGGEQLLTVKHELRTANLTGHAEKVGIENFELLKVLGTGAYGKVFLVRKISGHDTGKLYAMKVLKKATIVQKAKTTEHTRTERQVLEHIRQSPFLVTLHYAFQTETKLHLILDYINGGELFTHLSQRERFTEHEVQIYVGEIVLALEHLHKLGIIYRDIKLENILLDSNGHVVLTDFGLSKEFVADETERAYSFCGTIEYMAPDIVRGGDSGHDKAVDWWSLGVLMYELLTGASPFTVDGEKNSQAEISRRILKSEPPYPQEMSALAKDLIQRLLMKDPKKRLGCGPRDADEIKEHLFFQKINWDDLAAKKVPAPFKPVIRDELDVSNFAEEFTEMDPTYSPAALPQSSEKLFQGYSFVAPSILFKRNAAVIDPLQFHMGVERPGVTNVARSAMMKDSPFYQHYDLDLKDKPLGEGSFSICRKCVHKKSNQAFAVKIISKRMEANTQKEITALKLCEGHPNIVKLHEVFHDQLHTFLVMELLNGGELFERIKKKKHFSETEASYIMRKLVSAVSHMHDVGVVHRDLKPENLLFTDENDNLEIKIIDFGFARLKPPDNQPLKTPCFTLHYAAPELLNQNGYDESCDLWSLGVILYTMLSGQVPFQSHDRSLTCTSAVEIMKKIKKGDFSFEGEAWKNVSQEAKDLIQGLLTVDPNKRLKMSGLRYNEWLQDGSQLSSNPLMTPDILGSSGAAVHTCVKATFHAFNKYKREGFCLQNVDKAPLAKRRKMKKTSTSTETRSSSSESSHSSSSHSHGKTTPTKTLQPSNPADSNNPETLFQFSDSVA

`COc1ccc(N2C(=O)COc3ccc(-c4cnc(OC)c(NS(=O)(=O)c5ccc(F)cc5)c4)cc32)cc1` showed an inhibition [1] of 6.18%, an inhibition [2] of 15.1% and an inhibition [3] of -4.58%. It also gave an inhibition [4] of 0.23%, an inhibition [5] of 0.16% and an inhibition [6] of 19.2%. The inhibition [7] was 5.89%, the inhibition [8] was 8.07% and the inhibition [9] was 67.5%. It also gave an inhibition [10] of 6.22%, an inhibition [11] of 8.65% and an inhibition [12] of 10.8%. The inhibition [13] was -0.11%, the inhibition [14] was 1.33% and the inhibition [15] was 8.67%. For the same molecule, the inhibition [16] was 11.2%, the inhibition [17] was -2.27% and the inhibition [18] was -3.23%. The inhibition [19] was 22.3%, the inhibition [20] was 2.83% and the inhibition [21] was 7.83%. The inhibition [22] was -6.56%, the inhibition [23] was -8.01% and the inhibition [24] was -7.8%. The inhibition [25] was 7.68%, the inhibition [26] was -9.98% and the IC50 [27] was 13.1 µM. It also gave an inhibition [28] of -0.54%, an inhibition [29] of 1.74% and an inhibition [30] of 14.2%. It also gave an inhibition [31] of 19.4%.
